Results published in patent US20240150377A1, “MODULATORS OF CYSTIC FIBROSIS TRANSMEMBRANE CONDUCTANCE REGULATOR” (VERTEX PHARMACEUTICALS INCORPORATED, priority 2020, published 2024).
Read-outs that look alike come from different tables or passages of the source. Each block holds one compound with its values, some of them ahead of it.

Target: T1, CFTR (Homo sapiens, UniProt P13569, DEL508-508)
T1 construct: endogenous in cells; host or cells: primary human bronchial epithelial cells from CF subjects (F508del/MF-HBE), differentiated at air-liquid interface
Experiment: HBE assay: Ussing chamber assay of CFTR-mediated short-circuit currents
Assay type: cell-based
How it was run: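 CFTR-mediated Isc (μA/cm²) equals the peak response to apical 20 μM forskolin minus the residual after a 20 μM each BPO/GlyH-101/CFTR inhibitor 172 cocktail, recorded in Ussing chambers at Vhold 0 mV, 37 °C, pH 7.4, with 30 μM apical amiloride. Cells were F508del/MF HBE cultures preincubated 18-24 h with corrector (concentration range or 10 μM) plus 1 μM ivacaftor in 20% human serum.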

[1] = Table 10, at 10 μM, read-out: HBE activity at 10 (μM) (%)
[2] = Table 13, read-out: HBE Max Activity (%)
[3] = Table 11, read-out: HBE Max Activity (%)
[4] = Table 12, at 10 μM, read-out: HBE Activity at 10 μM (%)
[5] = Table 13, at 10 μM, read-out: HBE Activity at 10 μM (%)
[6] = Table 10, read-out: HBE Max activity (%)
[7] = HBE assay, read-out: HBE Max activity (%)
[8] = Table 12, read-out: HBE Max Activity (%)

T1 sequence (P13569 with tags, fused parts or gaps DEL508-508): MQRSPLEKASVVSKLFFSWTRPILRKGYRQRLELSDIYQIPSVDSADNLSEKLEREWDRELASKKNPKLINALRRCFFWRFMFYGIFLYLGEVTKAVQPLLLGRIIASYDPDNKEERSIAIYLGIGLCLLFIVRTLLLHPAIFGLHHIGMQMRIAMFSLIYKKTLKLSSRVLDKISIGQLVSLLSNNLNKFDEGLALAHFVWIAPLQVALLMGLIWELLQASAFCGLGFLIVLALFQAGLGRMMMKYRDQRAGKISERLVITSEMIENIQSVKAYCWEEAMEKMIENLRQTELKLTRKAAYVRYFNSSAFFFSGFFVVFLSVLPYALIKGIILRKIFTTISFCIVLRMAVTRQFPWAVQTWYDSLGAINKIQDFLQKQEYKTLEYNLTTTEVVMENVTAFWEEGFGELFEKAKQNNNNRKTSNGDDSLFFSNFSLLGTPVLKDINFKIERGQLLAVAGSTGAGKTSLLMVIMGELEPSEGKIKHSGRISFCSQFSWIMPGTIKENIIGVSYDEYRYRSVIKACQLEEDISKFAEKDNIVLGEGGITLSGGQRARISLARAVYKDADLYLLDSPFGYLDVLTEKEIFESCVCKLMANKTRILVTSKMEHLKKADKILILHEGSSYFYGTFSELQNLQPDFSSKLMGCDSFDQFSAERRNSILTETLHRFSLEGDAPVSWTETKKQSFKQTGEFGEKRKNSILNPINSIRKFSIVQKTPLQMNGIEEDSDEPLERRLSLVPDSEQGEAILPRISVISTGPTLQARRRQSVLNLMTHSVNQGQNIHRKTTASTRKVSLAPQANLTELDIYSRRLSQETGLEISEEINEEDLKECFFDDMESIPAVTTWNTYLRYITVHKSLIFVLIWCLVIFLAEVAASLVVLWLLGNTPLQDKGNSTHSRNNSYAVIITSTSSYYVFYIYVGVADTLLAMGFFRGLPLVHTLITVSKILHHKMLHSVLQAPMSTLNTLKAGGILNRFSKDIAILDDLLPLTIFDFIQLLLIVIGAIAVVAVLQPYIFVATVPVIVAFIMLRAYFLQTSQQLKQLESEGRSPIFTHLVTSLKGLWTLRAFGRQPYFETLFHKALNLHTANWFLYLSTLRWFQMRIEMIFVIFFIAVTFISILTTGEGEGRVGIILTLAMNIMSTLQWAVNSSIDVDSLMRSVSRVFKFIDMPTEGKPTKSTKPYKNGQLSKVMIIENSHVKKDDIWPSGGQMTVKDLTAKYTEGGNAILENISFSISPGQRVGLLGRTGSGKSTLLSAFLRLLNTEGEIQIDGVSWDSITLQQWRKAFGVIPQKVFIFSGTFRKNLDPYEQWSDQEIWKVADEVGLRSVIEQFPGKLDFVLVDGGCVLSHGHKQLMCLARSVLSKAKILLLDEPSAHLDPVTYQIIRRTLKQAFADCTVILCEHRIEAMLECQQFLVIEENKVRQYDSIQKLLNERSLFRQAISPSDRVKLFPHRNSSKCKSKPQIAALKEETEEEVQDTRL

EC50 (Table 13, read-out: HBE EC50): < 1 µM | Emax [2]: > 60%
Structure (SMILES): Cc1cccc(C)c1-c1cc2nc(n1)NS(=O)(=O)c1cccc(c1)C(=O)N(Cc1ncccc1F)[C@H](CC(C)(C)C)CO2 [Compound 1068]

EC50 (Table 11, read-out: HBE EC50): < 1 µM | Emax [3]: > 60%
Structure (SMILES): Cc1cccc(C)c1-c1cc2nc(n1)NS(=O)(=O)c1cccc(c1)C(=O)N(Cc1cncc(N3CCOCC3)n1)[C@H](CC(C)(C)C)CO2 [Compound 896]

activation at 10 µM [4]: > 600%
Structure (SMILES): Cc1cc(N(C)C(C)C)nc(CN2C(=O)c3cccc(c3)S(=O)(=O)Nc3nc(cc(-c4c(C)cccc4C)n3)OC[C@H]2CC(C)(C)C)n1 [Compound 323]

activation at 10 µM [4]: > 600%
Structure (SMILES): Cc1cccc(C)c1-c1cc2nc(n1)NS(=O)(=O)c1cccc(c1)C(=O)N(Cc1nccc(N(C)C34CC(C3)C4)n1)[C@H](CC(C)(C)C)CO2 [Compound 447]

EC50 (Table 10, read-out: HBE EC50): < 1 µM | Emax [6]: > 60%
Structure (SMILES): Cc1cccc(C)c1-c1cc2nc(n1)NS(=O)(=O)c1cccc(c1)C(=O)N(Cc1cccnc1N1CCOCC1)[C@H](CC(C)(C)C)CO2 [Compound 374]

EC50 (Table 10, read-out: HBE EC50): < 1 µM | Emax [6]: > 60%
Structure (SMILES): Cc1cccc(C)c1-c1cc2nc(n1)NS(=O)(=O)c1cccc(c1)C(=O)N(Cc1ccc(N3CCOCC3)nc1)[C@H](CC(C)(C)C)CO2 [Compound 60, (11R)-6-(2,6-Dimethylphenyl)-11-(2,2-dimethylpropyl)-12-[(6-morpholino-3-pyridyl)methyl]-2,2-dioxo-9-oxa-2λ^6-thia-3,5,12,19-tetrazatricyclo[12.3.1.14,8]nonadeca-1(18),4(19),5,7,14,16-hexaen-13-one]

EC50 (HBE assay, read-out: HBE EC50): < 1 µM | Emax [7]: > 60%
Structure (SMILES): CCC(C)Oc1cnc(CN2C(=O)c3cccc(c3)S(=O)(=O)Nc3nc(cc(-c4c(C)cccc4C)n3)OC[C@H]2CC(C)(C)C)nc1 (stereo partly drawn) [Compound 1345]

EC50 (Table 11, read-out: HBE EC50): < 1 µM | Emax [3]: > 60%
Structure (SMILES): CNc1ccnc(CN2C(=O)c3cccc(c3)S(=O)(=O)Nc3nc(cc(-c4c(C)cccc4C)n3)OC[C@H]2CC(C)(C)C)n1 [Compound 647]

activation at 10 µM [4]: > 600%
Structure (SMILES): Cc1cccc(C)c1-c1cc2nc(n1)NS(=O)(=O)c1cccc(c1)C(=O)N(Cc1cc3n(n1)CCCO3)[C@H](CC(C)(C)C)CO2 [Compound 456]

activation at 10 µM (Table 11, at 10 μM, read-out: HBE Activity at 10 μM (%)): > 60% | EC50 (Table 11, read-out: HBE EC50): < 1 µM | Emax [3]: > 60%
Structure (SMILES): Cc1cccc(C)c1-c1cc2nc(n1)NS(=O)(=O)c1cccc(c1)C(=O)N(Cc1cccc(C3=CCOCC3)n1)[C@H](CC(C)(C)C)CO2 [Compound 733]

activation at 10 µM [5]: > 600%
Structure (SMILES): Cc1cccc(C)c1-c1cc2nc(n1)NS(=O)(=O)c1cccc(c1)C(=O)N(Cc1nccc(C(C)C(C)C)n1)[C@H](CC(C)(C)C)CO2 (stereo partly drawn) [Compound 538]

activation at 10 µM [5]: > 600% | EC50 (Table 13, read-out: HBE EC50): < 1 µM | Emax [2]: > 60%
Structure (SMILES): COC1(C)CCN(c2cnc(CN3C(=O)c4cccc(c4)S(=O)(=O)Nc4nc(cc(-c5c(C)cccc5C)n4)OC[C@H]3CC(C)(C)C)nc2)CC1 [Compound 870]

EC50 (Table 11, read-out: HBE EC50): < 1 µM | Emax [3]: > 60%
Structure (SMILES): Cc1cccc(C)c1-c1cc2nc(n1)NS(=O)(=O)c1cccc(c1)C(=O)N(Cc1nccc(N3CCOCC3)n1)[C@H](CC(C)(C)C)CO2 [Compound 651]

EC50 (HBE assay, read-out: HBE EC50): < 1 µM | Emax [7]: > 60%
Structure (SMILES): Cc1cccc(C)c1-c1cc2nc(n1)NS(=O)(=O)c1cccc(c1)C(=O)N(Cc1ccnc(N3CCC[C@H]3C)n1)[C@H](CC(C)(C)C)CO2 [Compound 1449]

EC50 (HBE assay, read-out: HBE EC50): < 1 µM | Emax [7]: > 60%
Structure (SMILES): Cc1cccc(C)c1-c1cc2nc(n1)NS(=O)(=O)c1cccc(c1)C(=O)N(Cc1ncc(OC3CCOCC3)cc1F)[C@H](CC(C)(C)C)CO2 [Compound 1368]

activation at 10 µM [1]: > 60%
Structure (SMILES): Cc1cccc(C)c1-c1cc2nc(n1)NS(=O)(=O)c1cccc(c1)C(=O)N(Cc1cc(C)n(C)n1)[C@H](CC(C)(C)C)CO2 [Compound 828]

EC50 (Table 11, read-out: HBE EC50): < 1 µM | Emax [3]: > 60%
Structure (SMILES): Cc1cccc(C)c1-c1cc2nc(n1)NS(=O)(=O)c1cccc(c1)C(=O)N(Cc1cnc(OC(C)C)cn1)[C@H](CC(C)(C)C)CO2 [Compound 897]

EC50 (HBE assay, read-out: HBE EC50): < 1 µM | Emax [7]: > 60%
Structure (SMILES): CCO[C@H]1CCN(c2cnc(CN3C(=O)c4cccc(c4)S(=O)(=O)Nc4nc(cc(-c5c(C)cccc5C)n4)OC[C@H]3CC(C)(C)C)nc2)C1 [Compound 1438]

EC50 (Table 13, read-out: HBE EC50): < 1 µM | Emax [2]: > 60%
Structure (SMILES): Cc1cccc(C)c1-c1cc2nc(n1)NS(=O)(=O)c1cccc(c1)C(=O)N(Cc1ncc(N3CCOC4(CC4)C3)cn1)[C@H](CC(C)(C)C)CO2 [Compound 1148]

EC50 (Table 12, read-out: HBE EC50): < 1 µM
Structure (SMILES): Cc1cccc(C)c1-c1cc2nc(n1)NS(=O)(=O)c1cccc(c1)C(=O)N(Cc1ncc(N3CC4CC3CO4)cn1)[C@H](CC(C)(C)C)CO2 (stereo partly drawn) [Compound 546]

activation at 10 µM (HBE assay, 10 μM, read-out: HBE Activity at 10 μM (%)): > 60%
Structure (SMILES): Cc1cccc(C)c1-c1cc2nc(n1)NS(=O)(=O)c1cccc(c1)C(=O)N(Cc1ncc3c(n1)CCOC3)[C@H](CC(C)(C)C)CO2 [Compound 1362]

EC50 (Table 12, read-out: HBE EC50): < 1 µM | Emax [8]: > 60%
Structure (SMILES): C=C(C)c1nccc(CN2C(=O)c3cccc(c3)S(=O)(=O)Nc3nc(cc(-c4c(C)cccc4C)n3)OC[C@H]2CC(C)(C)C)n1 [Compound 593]

activation at 10 µM [1]: > 60% | Emax [6]: > 60%
Structure (SMILES): Cc1ccnc(CN2C(=O)c3cccc(c3)S(=O)(=O)Nc3nc(cc(-c4c(C)cccc4C)n3)OC[C@H]2CC(C)(C)C)n1 [Compound 479]

The remaining lines, values behind:

Structure (SMILES): CNC(=O)COc1ccccc1CN1C(=O)c2cccc(c2)S(=O)(=O)Nc2nc(cc(-c3c(C)cccc3C)n2)OC[C@H]1CC(C)(C)C [Compound 775]
activation at 10 µM [1]: > 60%

Structure (SMILES): Cc1cccc(C)c1-c1cc2nc(n1)NS(=O)(=O)c1cccc(c1)C(=O)N(Cc1ccc(C3CCCCC3)c(C)n1)[C@H](CC(C)(C)C)CO2 [Compound 467]
activation at 10 µM [1]: > 60%

Structure (SMILES): Cc1cccc(C)c1-c1cc2nc(n1)NS(=O)(=O)c1cccc(c1)C(=O)N(CC1(C(=O)O)CC1)[C@H](CC(C)(C)C)CO2 [Compound 450]
activation at 10 µM [4]: 30 to 60% | EC50 (Table 12, read-out: HBE EC50): < 1 µM

Structure (SMILES): Cc1cccc(C)c1-c1cc2nc(n1)NS(=O)(=O)c1cccc(c1)C(=O)N(CC1(C(=O)NC3CCCCC3)CC1)[C@H](CC(C)(C)C)CO2 [Compound 1115]
activation at 10 µM [5]: > 600%

Structure (SMILES): Cc1cccc(C)c1-c1cc2nc(n1)NS(=O)(=O)c1cccc(c1)C(=O)N(Cc1ccnc(N(C)CC(C)(C)C)n1)[C@H](CC(C)(C)C)CO2 [Compound 601]
EC50 (Table 11, read-out: HBE EC50): < 1 µM | Emax [3]: > 60%

Structure (SMILES): Cc1cccc(C)c1-c1cc2nc(n1)NS(=O)(=O)c1cccc(c1)C(=O)N(CC(=O)N1CCC[C@@H](C)C1)[C@H](CC(C)(C)C)CO2 [Compound 184]
activation at 10 µM [5]: > 600%

Structure (SMILES): Cc1cccc(C)c1-c1cc2nc(n1)NS(=O)(=O)c1cccc(c1)C(=O)N(Cc1ccn(CC(C)C)n1)[C@H](CC(C)(C)C)CO2 [Compound 454]
EC50 (Table 12, read-out: HBE EC50): < 1 µM | Emax [8]: > 60%

Structure (SMILES): Cc1cccc(C)c1-c1cc2nc(n1)NS(=O)(=O)c1cccc(c1)C(=O)N(Cc1cccc(N3CCC(C)(O)CC3)n1)[C@H](CC(C)(C)C)CO2 [Compound 721]
EC50 (Table 11, read-out: HBE EC50): < 1 µM | Emax [3]: > 60%

Structure (SMILES): Cc1cccc(C)c1-c1cc2nc(n1)NS(=O)(=O)c1cccc(c1)C(=O)N(CC(=O)N1CCN(C(C)C)CC1)[C@H](CC(C)(C)C)CO2 [Compound 187]
activation at 10 µM [5]: > 600%

Structure (SMILES): Cc1cccc(C)c1-c1cc2nc(n1)NS(=O)(=O)c1cccc(c1)C(=O)N(Cc1ccc(C3CC(C)(C)CCO3)cn1)[C@H](CC(C)(C)C)CO2 (stereo partly drawn) [Compound 706]
EC50 (Table 12, read-out: HBE EC50): < 1 µM | Emax [8]: > 60%

Structure (SMILES): Cc1cccc(C)c1-c1cc2nc(n1)NS(=O)(=O)c1cccc(c1)C(=O)N(CC(=O)NC1CCCCC1)[C@H](CC(C)(C)C)CO2 [Compound 205]
activation at 10 µM [5]: > 600%

Structure (SMILES): Cc1cccc(C)c1-c1cc2nc(n1)NS(=O)(=O)c1cccc(c1)C(=O)N(Cc1cnc(N3CCC(C)(C)CC3)cn1)[C@H](CC(C)(C)C)CO2 [Compound 608]
EC50 (Table 11, read-out: HBE EC50): < 1 µM | Emax [3]: > 60%

Structure (SMILES): Cc1cccc(C)c1-c1cc2nc(n1)NS(=O)(=O)c1cccc(c1)C(=O)N(C[C@H]1CC[C@@H](O)CC1)[C@H](CC(C)(C)C)CO2 (single isomer, unassigned) [Compound 152]
activation at 10 µM [1]: > 60%

Structure (SMILES): Cc1cccc(C)c1-c1cc2nc(n1)NS(=O)(=O)c1cccc(c1)C(=O)N(Cc1nc(N(C)C(C)C)ccc1C(F)(F)F)[C@H](CC(C)(C)C)CO2 [Compound 458]
activation at 10 µM [4]: > 600%

Structure (SMILES): Cc1cccc(C)c1-c1cc2nc(n1)NS(=O)(=O)c1cccc(c1)C(=O)N(CC(=O)N1CCOCC1C(C)C)[C@H](CC(C)(C)C)CO2 (stereo partly drawn) [Compound 212]
activation at 10 µM [5]: > 600%

Structure (SMILES): COC[C@@H]1CCCN1c1cccc(CN2C(=O)c3cccc(c3)S(=O)(=O)Nc3nc(cc(-c4c(C)cccc4C)n3)OC[C@H]2CC(C)(C)C)n1 [Compound 275]
EC50 (Table 12, read-out: HBE EC50): < 1 µM | Emax [8]: > 60%

Structure (SMILES): CC(C)c1cccc(C(C)C)c1-c1cc2nc(n1)NS(=O)(=O)c1cccc(c1)C(=O)N(Cc1ccc(N3CCOCC3)cn1)[C@H](CC(C)(C)C)CO2 [Compound 831]
Emax [6]: > 60%

Structure (SMILES): Cc1cccc(C)c1-c1cc2nc(n1)NS(=O)(=O)c1cccc(c1)C(=O)N(Cc1cncc(N(C)C(C(=O)O)C(C)C)n1)[C@H](CC(C)(C)C)CO2 (stereo partly drawn) [Compound 243]
activation at 10 µM [4]: > 600%

Structure (SMILES): Cc1cccc(C)c1-c1cc2nc(n1)NS(=O)(=O)c1cccc(c1)C(=O)N(Cc1cncc(N(C)CC(C)(C)C)c1)[C@H](CC(C)(C)C)CO2 [Compound 281]
activation at 10 µM [4]: > 600%

Structure (SMILES): Cc1cccc(C)c1-c1cc2nc(n1)NS(=O)(=O)c1cccc(c1)C(=O)N(Cc1cccc(N3CCC[C@H]3C3CC3)n1)[C@H](CC(C)(C)C)CO2 [Compound 1497]
EC50 (HBE EC50 (μM), HBE assay): < 1 µM | Emax (read-out: HBE Max activity (%)): > 60%
